ChEMBL document CHEMBL1201862, “PubChem BioAssay data set” (2004)
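1) Cells in 96-well plates. 2) Compound, 48 h, 5 concentrations. 3) Linear interpolation between surrounding doses. 4) Unreached endpoint = highest concentration. Here, GI50 denotes the concentration required for 50% inhibition of growth.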 The source made the active and inactive calls. Rule as the data show it: active = GI50 up to about 1.1 µM and inactive = higher.

Assays:
Assay in all cases: NCI-60 cell line screen, 48 h
SK-MEL-2 = tested on: SK-MEL-2
COLO 205 = tested on: COLO 205
HOP-62 = tested on: HOP-62
M19-MEL = tested on: M19-MEL
RXF 393 = tested on: RXF 393
LOX IMVI = tested on: LOX IMVI
SN12C = tested on: SN12C
SF-295 = tested on: SF-295
K562 = tested on: K562
OVCAR-3 = tested on: OVCAR-3
TK-10 = tested on: TK-10
RPMI-8226 = tested on: RPMI-8226
SF-539 = tested on: SF-539
786-0 = tested on: 786-0
HCC 2998 = tested on: HCC 2998
NCI-H23 = tested on: NCI-H23
KM12 = tested on: KM12
HOP-92 = tested on: HOP-92

| Compound | GI50 (SK-MEL-2) | GI50 (COLO 205) | GI50 (HOP-62) | GI50 (M19-MEL) | GI50 (RXF 393) | GI50 (LOX IMVI) | GI50 (SN12C) | GI50 (SF-295) | GI50 (K562) | GI50 (OVCAR-3) | GI50 (TK-10) | GI50 (RPMI-8226) | GI50 (SF-539) | GI50 (786-0) | GI50 (HCC 2998) | GI50 (NCI-H23) | GI50 (KM12) | GI50 (HOP-92) |
| --- | --- | --- | --- | --- | --- | --- | --- | --- | --- | --- | --- | --- | --- | --- | --- | --- | --- | --- |
| COC(=O)c1c(C)oc2ccc(OC(C)=O)cc12 | > 100 µM (inactive) | > 100 µM (inactive) | > 100 µM (inactive) | > 100 µM (inactive) | > 100 µM (inactive) | > 100 µM (inactive) | > 100 µM (inactive) | > 100 µM (inactive) | > 100 µM (inactive) | > 100 µM (inactive) | > 100 µM (inactive) | > 100 µM (inactive) | > 100 µM (inactive) | > 100 µM (inactive) | 30.5 µM (inactive) | > 100 µM (inactive) | > 100 µM (inactive) |  |
| CC1CC(C)C(=O)C(C(=O)CC2CC(=O)NC2=O)C1 (centres undefined) |  | > 100 µM (inactive) | > 100 µM (inactive) | > 100 µM (inactive) | > 100 µM (inactive) | > 100 µM (inactive) | > 100 µM (inactive) | > 100 µM (inactive) | > 100 µM (inactive) | > 100 µM (inactive) | > 100 µM (inactive) | > 100 µM (inactive) | > 100 µM (inactive) | > 100 µM (inactive) | > 100 µM (inactive) | > 100 µM (inactive) | > 100 µM (inactive) | > 100 µM (inactive) |
| O=C(O)/C=C\C(=O)c1ccc(Cl)cc1 | 28.6 µM (inactive) | 19.6 µM (inactive) | > 100 µM (inactive) | 24.3 µM (inactive) | 21.5 µM (inactive) | 24.9 µM (inactive) | 51.9 µM (inactive) | > 100 µM (inactive) | 31.1 µM (inactive) | 28.8 µM (inactive) | 40.5 µM (inactive) | 25.2 µM (inactive) | 25.1 µM (inactive) | 28.9 µM (inactive) | > 100 µM (inactive) | 31.8 µM (inactive) | 52.1 µM (inactive) | 24.5 µM (inactive) |
| CC1(c2ccccc2)CC12C(=O)NC(=O)NC2=O (centres undefined) | > 100 µM (inactive) | > 100 µM (inactive) | > 100 µM (inactive) | > 100 µM (inactive) |  | > 100 µM (inactive) | > 100 µM (inactive) | > 100 µM (inactive) | > 100 µM (inactive) | > 100 µM (inactive) | > 100 µM (inactive) | > 100 µM (inactive) | > 100 µM (inactive) | > 100 µM (inactive) | > 100 µM (inactive) | > 100 µM (inactive) | > 100 µM (inactive) | > 100 µM (inactive) |
| S=C1OC2C3C4CC5C3C(O1)C1C5C4C21 (centres undefined) |  | > 100 µM (inactive) | > 100 µM (inactive) | > 100 µM (inactive) | > 100 µM (inactive) | 74 µM (inactive) | > 100 µM (inactive) | > 100 µM (inactive) |  | > 100 µM (inactive) | > 100 µM (inactive) | > 100 µM (inactive) | > 100 µM (inactive) | > 100 µM (inactive) | > 100 µM (inactive) |  | > 100 µM (inactive) | > 100 µM (inactive) |
| C=C=C(C(=O)OC)[S+]([O-])c1ccc([N+](=O)[O-])cc1[N+](=O)[O-] (centres undefined) | 44.5 µM (inactive) | 23.5 µM (inactive) | > 45.3 µM (inactive) | 25.4 µM (inactive) | 30.7 µM (inactive) | 21.5 µM (inactive) | 22.4 µM (inactive) | > 92.7 µM (inactive) | 20 µM (inactive) | 25.3 µM (inactive) | 46 µM (inactive) | 21.7 µM (inactive) | 26.1 µM (inactive) | 39.7 µM (inactive) | 14.7 µM (inactive) | 53.8 µM (inactive) | 33.7 µM (inactive) | 18.6 µM (inactive) |
| COc1ccc(N(C)Sc2ccccc2)cc1 | 65.5 µM (inactive) | > 100 µM (inactive) | 95.5 µM (inactive) | 69 µM (inactive) | 19.9 µM (inactive) | 31.1 µM (inactive) | 21.1 µM (inactive) | 55.1 µM (inactive) | 41.4 µM (inactive) | 52.4 µM (inactive) | > 100 µM (inactive) | 36.1 µM (inactive) | 20.4 µM (inactive) | 16.9 µM (inactive) | > 100 µM (inactive) | 83.4 µM (inactive) | 56.6 µM (inactive) | 79.8 µM (inactive) |
| Cc1cc([N+](=O)[O-])c(S(=O)(=O)c2ccccc2)c([N+](=O)[O-])c1 | 20 µM (inactive) | 9.51 µM (inactive) | 21.7 µM (inactive) | 11.7 µM (inactive) | 2.2 µM (inactive) | 2.57 µM (inactive) | 4.43 µM (inactive) | 18.8 µM (inactive) | 4.08 µM (inactive) | 5.62 µM (inactive) | 17.9 µM (inactive) | 14.8 µM (inactive) | 12.7 µM (inactive) | 3.95 µM (inactive) | 21.2 µM (inactive) | 8.53 µM (inactive) | 17.1 µM (inactive) | 2.43 µM (inactive) |
| O=C(Nc1ccc(Br)cc1)C(=O)C(C(=O)c1ccccc1F)C1OC(=O)c2ccccc21 (centres undefined) | 21.8 µM (inactive) | 20.4 µM (inactive) | 22.8 µM (inactive) | 17.2 µM (inactive) |  | 18.4 µM (inactive) | 27.9 µM (inactive) |  | 31 µM (inactive) | 39.8 µM (inactive) | 50.5 µM (inactive) | 17.8 µM (inactive) | 20.1 µM (inactive) | 22.5 µM (inactive) | 16.9 µM (inactive) | 17.9 µM (inactive) | 31.8 µM (inactive) | 27.7 µM (inactive) |
| CCn1cnc2c(=S)nc(N)[nH]c21 |  | > 100 µM (inactive) | > 100 µM (inactive) | > 100 µM (inactive) | > 100 µM (inactive) | > 100 µM (inactive) | > 100 µM (inactive) | > 100 µM (inactive) | > 100 µM (inactive) | > 100 µM (inactive) | > 100 µM (inactive) | > 100 µM (inactive) | > 100 µM (inactive) | > 100 µM (inactive) | > 100 µM (inactive) | > 100 µM (inactive) | > 100 µM (inactive) |  |
| CCn1c(CSc2nc(-c3ccccc3)c(-c3ccccc3)[nH]2)n[nH]c1=S | > 100 µM (inactive) | > 100 µM (inactive) | > 100 µM (inactive) | > 100 µM (inactive) |  | > 100 µM (inactive) | > 100 µM (inactive) | > 100 µM (inactive) |  | > 100 µM (inactive) | > 100 µM (inactive) | > 100 µM (inactive) | > 100 µM (inactive) | > 100 µM (inactive) | 0.0243 µM (active) | > 100 µM (inactive) | 51.4 µM (inactive) | > 100 µM (inactive) |
| COc1cc(Br)c(/C=N/N=C(\N)NO)cc1OC | 26.1 µM (inactive) | 11 µM (inactive) | 14.1 µM (inactive) | 19.6 µM (inactive) | 21.9 µM (inactive) | 17.6 µM (inactive) | 24.6 µM (inactive) | 28.5 µM (inactive) | 15.7 µM (inactive) | 33.2 µM (inactive) | 7.69 µM (inactive) | > 100 µM (inactive) | 24.7 µM (inactive) | 18.4 µM (inactive) | 12.3 µM (inactive) | 26 µM (inactive) | 15.5 µM (inactive) | 23.6 µM (inactive) |
